Experimental data taken from ChEMBL document CHEMBL3751765, “Efavirenz a nonnucleoside reverse transcriptase inhibitor of first-generation: Approaches based on its medicinal chemistry” (Eur J Med Chem, 2016).

Key:
[1] = target: Human immunodeficiency virus type 1 reverse transcriptase (Human immunodeficiency virus 1) (UniProt Q72547)
[2] = target: Human immunodeficiency virus type 1 reverse transcriptase (Human immunodeficiency virus 1, UniProt Q72547); experiment: Inhibition of HIV1 reverse transcriptase
[3] = Tmax in human plasma after the first dose of drug; format: ADME, organism-based
[4] = Half life in human administered as single dose; format: ADME, organism-based; settings: in vivo
[5] = Half life in human administered as multiple doses; format: ADME, organism-based; settings: in vivo

Row | IC90 [1] [nM] | SMILES | also measured
1 | 10.3 | O=C1Nc2ccccc2[C@@](C#CC2CC2)(C(F)(F)F)O1 | –
2 | – | CCOC(=O)[C@@H]1C[C@@]12C(=O)Nc1ccc(Cl)cc12 | IC50 [2]: 59 nM
3 | 3 | CC(C)C#C[C@]1(C(F)(F)F)NC(=O)Nc2ccc(Cl)cc21 | –
4 | 40 | CN1C(=O)C(O)(C#CC2CC2)c2ccccc21 (stereo not drawn) | –
5 | 296 | CC(=O)Nc1ccc2c(c1)[C@@](C#CC1CC1)(C(F)(F)F)OC(=O)N2 | –
6 | 2.7 | O=C1Nc2ccc(Cl)cc2[C@@](C#CC2CC2)(C(F)(F)F)N1 | –
7 | 7.11 | Cc1ccc2c(c1)[C@@](C#CC1CC1)(C(F)(F)F)OC(=O)N2 | –
8 | 6 | Cc1ccc2c(c1)C(O)(C#CC1CC1)C(=O)N2C (stereo not drawn) | –
9 | – | O=S1(c2ccccc2)=NC(=S)Nc2ccccc21 (stereo not drawn) | IC50 [2]: 950 nM
10 | 7.35 | O=C1Nc2ccc(F)cc2[C@@](C#CC2CC2)(C(F)(F)F)O1 | –
11 | 8.33 | CN(C)c1ccc2c(c1)[C@@](C#CC1CC1)(C(F)(F)F)OC(=O)N2 | –
12 | 32 | CCCO[C@@](C#CC1CC1)(c1cc(CC)c(C)[nH]c1=O)C(F)(F)F | –
13 | 4.8 | CC[C@H]1C(=O)Nc2ccc(F)cc2N1C(=O)OC(C)C [OPAVIRALINE] | IC50 [2]: 45 nM
14 | 5.39 | O=C1Nc2ccc(Cl)cc2[C@@](C#Cc2ccccn2)(C(F)(F)F)O1 | –
15 | – | COc1ccc2c(c1)N(C(=O)OC(C)C)[C@@H](CSC)C(=O)N2 | IC50 [2]: 2 nM
16 | – | C#CC1(C2CC2)c2cc(Cl)ccc2NC(=O)N1C (stereo not drawn) | IC50 [2]: 6 nM

Row | IC90 [1] [nM] | SMILES | also measured
17 | – | CCCCC[C@]12C[C@@]1(C(=O)OCC)C(=O)Nc1ccc(Br)cc12 | IC50 [2]: 1 nM
18 | 10.1 | CC(C)CCO[C@]1(C(F)(F)F)OC(=O)Nc2ccc(Cl)cc21 | –
19 | 2 | COc1ccc2c(c1)[C@@](C#CC1CC1)(C(F)(F)F)OC(=O)N2 | –
20 | 279 | O=C1Nc2ccc(-c3ccccc3)cc2[C@@](C#CC2CC2)(C(F)(F)F)O1 | –
21 | – | O=C1Nc2ccc(Cl)cc2[C@@](C#CC2CC2)(C(F)(F)F)O1 [EFAVIRENZ] | Tmax [3]: 5 h; half-life [4]: 52 h; half-life [5]: 40 h
22 | – | CC(C)=CCN1C(C)C(=O)Nc2ccc(Cl)cc2S1(=O)=O (stereo not drawn) | IC50 [2]: 800 nM
23 | 2.68 | CC(C)=CCO[C@]1(C(F)(F)F)OC(=O)Nc2ccc(Cl)cc21 | –
24 | 18.3 | CCO[C@]1(C(F)(F)F)OC(=O)Nc2ccc(Cl)cc21 | –
25 | 10.2 | CCCCO[C@]1(C(F)(F)F)OC(=O)Nc2ccc(Cl)cc21 | –
26 | 3.8 | O=C1Nc2ccc(Cl)cc2[C@@](C#Cc2ccco2)(C(F)(F)F)O1 | –
27 | – | C=CCC[C@]12C[C@@]1(C(=O)OCC)C(=O)Nc1ccc(Br)cc12 | IC50 [2]: 1 nM
28 | 18.9 | O=C1Nc2ccc(OC(F)(F)F)cc2[C@@](C#CC2CC2)(C(F)(F)F)O1 | –
29 | – | C[C@@H]1O[C@](/C=C/C2CC2)(C(F)(F)F)c2cc(Cl)ccc2NC1=O | IC50 [2]: 46 nM
30 | 3.9 | C=CCO[C@]1(C(F)(F)F)OC(=O)Nc2ccc(Cl)cc21 | –
31 | – | CCOC1(c2ccccc2)c2cc(Cl)ccc2NC(=O)N1C (stereo not drawn) | IC50 [2]: 56 nM

Row | SMILES | IC90 [1] [nM] | also measured
32 | O=C1Nc2ccc([N+](=O)[O-])cc2[C@@](C#CC2CC2)(C(F)(F)F)O1 | 0.83 | –
33 | Nc1ccc2c(c1)[C@@](C#CC1CC1)(C(F)(F)F)OC(=O)N2 | 20.6 | –
34 | O=C1Nc2cccc(F)c2[C@@](C#CC2CC2)(C(F)(F)F)O1 | 4.35 | –
35 | CNc1ccc2c(c1)[C@@](C#CC1CC1)(C(F)(F)F)OC(=O)N2 | 9.02 | –
